Measurements as given in patent US20220016092A1, “METHODS FOR TREATING SYMPTOMS AND DISORDERS ASSOCIATED WITH LYSOSOMAL STORAGE DISEASES” (GENZYME CORPORATION, priority 2019, published 2022).
Where “and” joins values, the source holds several entries; their conditions need not be identical. Identical values can stand only once. Entries after “also recorded” stand apart in the source; their conditions may differ. Like-named read-outs stand apart in the source and are kept apart here.

Columns and labels:
[1] = tested on: GM3 expression in B16 mouse melanoma cells; test: GM3 fluorescent-linked immunosorbent assay (FLISA), B16 cells; type: cell-based; conditions: 48 hours
Description: Inhibition of glucosylceramide synthase activity can be measured with one or more assays. A first assay is a microsomal assay that directly measures the conversion of ceramide to glucosylceramide by HPLC. Microsomes are a source of glucosylceramide synthase activity in the microsomal assay. A second assay is a cell based, phenotypic assay that monitors cell surface expression of the downstream lipid GM3 by antibody mediated immunofluorescence. Specific protocols are provided below.
This is a phenotypic assay that measures GM3 expression in B16 mouse melanoma or C32 human melanoma cells following treatment with test compounds. Cell surface GM3 expression is determined by antibody mediated fluorescence.
Compounds are diluted in media and plated in 384 well plates in DMSO. B16 and C32 cells are assayed at densities of 20,000 cells/ml and 62,500 cells/ml, respectively, per well. Each titration curve contains 10 points that are assayed in duplicate on each test run. The plates are incubated for 48 hours at 37° C., 5% CO2, and are then washed once with TBS. Anti-GM3 antibody is added to each well and the plates are then incubated for an additional one hour at room temperature. Plates are subsequently washed twice and incubated for an additional hour with the labeled secondary antibody. Following the final incubation, the plates are washed twice and the fluorescence at λex=D640/20 nm and λem=657 nm is detected on a fluorescent reader.
The results of the microsomal assays are expressed as “GCS IC50”, which represents the concentration of the compound causing 50% inhibition of glucosylceramide synthase activity. The results of the cell-based assays are expressed as “GM3 B16 IC50” or “GM3 C32 IC50” for the B16 assay and the C32 assay, respectively. These values represent the concentration of the compound causing 50% inhibition of GM3 expression on the cell surface.

[2] = tested on: adult patients with Gaucher disease Type 3; test: Clinical study in GD-3 patients: interstitial lung disease by high-resolution CT; type: in vivo, human; conditions: 15 mg/day + imiglucerase
Protocol: (§1) During the study patients were evaluated for safety and tolerability, CSF and plasma biomarkers (glucosylceramide, GL-1; glucosylsphingosine, lyso-GL1), pharmacokinetics, markers for systemic disease (spleen and liver volume measured by magnetic resonance imaging (MRI), platelet count, hemoglobin levels), indicia of interstitial lung disease (high resolution pulmonary computed tomography (CT)), and horizontal saccadic eye movement.
Severity of interstitial lung disease was characterized by the percent of lung volume affect by ILD as measured by high-resolution CT in four lung regions (aortic arch, carina, lower zone L3, lower zone L4). Patients were rated as having severe ILD (51-100% of lung volume affected), moderate ILD (26-50% of lung volume affected), mild ILD (1-25% of lung volume affected) or normal (0% of lung volume showing ILD).

[3] = tested on: adult patients with Gaucher disease Type 3; test: Clinical study in GD-3 patients: markers for systemic disease (platelets, spleen volume, hemoglobin); type: in vivo, human; conditions: 15 mg/day + imiglucerase
Protocol: as §1
Individual patient data for platelet counts are shown in the table below (shown as 10^9 platelets/L): […]

[4] = tested on: adult patients with Gaucher disease Type 3; test: Clinical study in GD-3 patients: Scale for Assessment and Rating of Ataxia (SARA); type: in vivo, human; conditions: 15 mg/day + imiglucerase
Protocol: The degree of ataxia at baseline and throughout the study was evaluated by the Scale for Assessment and Rating of Ataxia (SARA; Schmitz-Hübsch et al. [2006]), which assesses eight distinct attributes of cerebellar ataxia on a scale of 0-40. The eight attributes are gait, stance, sitting, speech disturbance, finger chase, nose-finger test, fast alternate hand movement, and heel-shin slide. SARA ataxia scoring results for all six patients is presented in the chart below: […]

[5] = Study 1 Part 1: ascending single-dose pharmacokinetics in healthy volunteers; type: in vivo, human; conditions: healthy men; for Tmax: male, human, plasma, read-out: tmax, median
Description: (§2) Study 1 was a 2-part single-center trial in healthy adult male volunteers.
Part 1 of the study enrolled and randomized 55 healthy men (placebo, n=14; 2-, 5-, 15, 25-, 50, and 100-mg doses, n=6 each; 150-mg dose, n=5). Eight healthy men participated in Part 2. […]

[6] = Study 1 Part 2: pharmacokinetics with and without a high-fat meal; type: in vivo, human; conditions: healthy men, single oral 5 mg dose
Description: as §2
Part 1 of the study enrolled and randomized 55 healthy men (placebo, n=14; 2-, 5-, 15, 25-, 50, and 100-mg doses, n=6 each; 150-mg dose, n=5). Eight healthy men participated in Part 2.
After a 7-day washout period, participants were crossed over to the other condition.

[7] = tested on: healthy, human volunteers; test: Phase 1 studies in healthy volunteers: safety; type: in vivo
Protocol: Compound 2 is also known as venglustat.
In all studies, safety profile was assessed by monitoring treatment-emergent adverse events (TEAEs) through 10 days after last dose of study medication, including serious adverse events [SAEs]), ECG monitoring, laboratory values, and physical examinations.

[8] = Week 26, individual Patients 1-5
[9] = single oral dose 2 mg, fasted (N = 6)
[10] = single oral dose 5 mg, fasted (N = 6)
[11] = single oral dose 15 mg, fasted (N = 6)
[12] = single oral dose 25 mg, fasted (N = 6)
[13] = single oral dose 50 mg, fasted (N = 6)
[14] = single oral dose 100 mg, fasted (N = 6)
[15] = single oral dose 150 mg, fasted (N = 5)

## CC(C)(NC(=O)O[C@@H]1CN2CCC1CC2)c1csc(-c2ccc(F)cc2)n1 [Compound 2, (S)-quinuclidin-3-yl 2-(2-(4-fluorophenyl)thiazol-4-yl)propan-2-ylcarbamate]
[1]
  IC50: 107 nM
[2]; [8]
  ILD severity, Aortic Arch Left: Norm (normal (0% of lung volume showing ILD)); also recorded: Mild (mild ILD (1-25% of lung volume affected))
  ILD severity, Aortic Arch Right: Norm (normal (0% of lung volume showing ILD)); also recorded: Mild (mild ILD (1-25% of lung volume affected))
  ILD severity, Carina Left: Norm (normal (0% of lung volume showing ILD)); also recorded: Mild (mild ILD (1-25% of lung volume affected))
  ILD severity, Carina Right: Norm (normal (0% of lung volume showing ILD)); also recorded: Mod (moderate ILD (26-50% of lung volume affected)); also recorded: Mild (mild ILD (1-25% of lung volume affected))
  ILD severity, Zone L3 Left: Norm (normal (0% of lung volume showing ILD)); also recorded: Mild (mild ILD (1-25% of lung volume affected))
  ILD severity, Zone L3 Right: Norm (normal (0% of lung volume showing ILD)); also recorded: Mild (mild ILD (1-25% of lung volume affected))
  ILD severity, Zone L4 Left: Norm (normal (0% of lung volume showing ILD)); also recorded: Mod (moderate ILD (26-50% of lung volume affected))
  ILD severity, Zone L4 Right: Norm (normal (0% of lung volume showing ILD)); also recorded: Mod (moderate ILD (26-50% of lung volume affected))
[2]; after 26 weeks
  Patients showing regression of ILD: 4 out of 5
[3]; 26 weeks
  Hemoglobin levels: no clinically meaningful changes in hemoglobin levels
  Platelet count increase in the three patients with lowest baseline platelet counts: 23-42%
[3]; 26 weeks (5 patients)
  Patients with reductions in splenic volume of 10% or more: Two
[3]; 26 weeks, all patients
  Systemic deterioration: absence of systemic deterioration
[3]; Week 4, individual Patients 1-5
  Platelet count: 203 10^9 platelets/L and 243 10^9 platelets/L and 247 10^9 platelets/L and 239 10^9 platelets/L and 154 10^9 platelets/L
[3]; Week 12, individual Patients 1-5
  Platelet count: 214 10^9 platelets/L and 294 10^9 platelets/L and 264 10^9 platelets/L and 314 10^9 platelets/L and 180 10^9 platelets/L
[3]; [8]
  Platelet count: 264 10^9 platelets/L and 236 10^9 platelets/L and 248 10^9 platelets/L and 267 10^9 platelets/L and 173 10^9 platelets/L
[3]; Week 52
  Hemoglobin levels: no clinically meaningful changes in hemoglobin levels
  Platelet count maintained by all patients: greater than 120 ×10^9/L
[3]; Week 52 (six patients)
  Patients with spleen volume reductions: two
[3]; Week 52, range −8.2% to +45.3%
  Mean platelet concentration increase: 9.3%
[3]; individual Patients 1-5
  Platelet count, % Change from baseline to 26 weeks: +42% and +23% and −4.3% and −13% and +36%
[3]; week 26
  Platelet counts, average rise from baseline: 17%
[4]; 52 weeks
  Patients showing improvements in ataxia: 5 of 6
[4]; Week 52
  Patients exhibiting an improvement in ataxia, excluding Patient 5: 4 out of 5
[4]; Week 52, SD=3.2
  Mean improvement in SARA score, excluding Patient 5: −0.9
[5]; [9]
  CL/F, Geometric mean: 6.3 L/h
  CL/F, Mean: 6.43 L/h
[5]; [10]
  CL/F, Geometric mean: 5.8 L/h
  CL/F, Mean: 5.86 L/h
[5]; [11]
  CL/F, Geometric mean: 5.6 L/h
  CL/F, Mean: 5.85 L/h
  Cmax, Geometric mean: 50.7 ng/mL
[5]; [12]
  CL/F, Geometric mean: 5.0 L/h
  CL/F, Mean: 5.18 L/h
  Tmax: 5 h
[5]; [13]
  CL/F, Geometric mean: 5.5 L/h
  CL/F, Mean: 5.75 L/h
[5]; [14]
  CL/F, Geometric mean: 5.3 L/h
  CL/F, Mean: 5.38 L/h
  Tmax: 3 h
[5]; [15]
  CL/F, Geometric mean: 5.6 L/h
  CL/F, Mean: 5.80 L/h
[6]
  Effect of a high-fat meal on exposure compared with fasting conditions: no effect
[6]; fed or fasting
  Median tmax: 6.00 h
[7]; all Phase 1 studies
  Hematologic or biochemical abnormalities: No clinically relevant hematologic or biochemical abnormalities
  Vital signs: no relevant changes from baseline
[7]; all Phase 1 studies (single 2-150 mg; 5-20 mg daily for 14 days)
  Deaths, SAEs, severe TEAEs, discontinuations: no deaths, SAEs, severe TEAEs, or TEAEs leading to study discontinuation
[7]; single ascending dose and food effect studies
  ECG parameters: no relevant changes
